Values of other authors in patent US7749547B2, “Nutritional composition and method for increasing creatine uptake and retention in skeletal muscle, increasing muscle mass and strength, increasing exercise capacity and for aiding recovery following exercise” (priority 2006, dated 2010).

Key:
[1] = supplemented rats
[2] = rodents; reduced food intake, enhanced energy expenditure
[3] = supplementation
[4] = not given; remark: listed apart in the source
[5] = healthy volunteers

O=C(O)CCCCC1CCSS1 (stereo not drawn) [ALA, Alpha Lipoic Acid]
age-related changes in mitochondrial function, accumulated oxidative damage and metabolic rate [1]: improved
body weight [2]: profound weight loss

[Cr] [Chromium]
lean mass (clinical): increase lean mass
body fat (combined with exercise): reduce body fat
high density lipoproteins (HDL) (human, in vivo): increase high density lipoproteins

CN(CC(=O)O)C(=N)N [Creatine, N-methyl-N-guanyl Glycine]
concentration of Creatine in the muscle [3]: increase the concentration of Creatine in the muscle
resynthesis of Phosphocreatine [3]: increase in the resynthesis of Phosphocreatine
high-intensity exercise performance ([4]; males and females): improved
strength and fatigue ([4]; supplemental Creatine): improve strength and reduce fatigue
muscle fiber cross sectional area ([4]; supplementation): increases muscle fiber cross sectional area
strength and fat-free mass ([4]; with resistance training, sedentary females and male football players): increased strength and fat-free mass over a placebo

Isomalt
bowel function and metabolic function [5]: promote healthy bowel function without impairing metabolic function
